# According to US20030087906A1, “NITROGEN SUBSTITUTED BIARYL PURINE DERIVATIVES AS POTENT ANTIPROLIFERATIVE AGENTS” (priority 2001, published 2003):
# Values joined by “and” are separate entries in the source; they are usually repeats but may differ in a detail not shown here. Equal entries are not always repeated.
# Columns and labels:
# HeLa S-3 cells = experiment: Inhibition of cell growth of HeLa cells (SRB); assay type: cell-based, human; details: 2 days of treatment, replicate experiments
# Method: Growth inhibition (GI50) values were measured with HeLa S-3 cells selected for growth on plastic. […] One day later, a control plate was fixed by addition of TCA to 5%. After five rinses with tap water the plate was air dried and stored at 4° C. Test compounds were added to the remaining plates at 10-fold dilutions between 0.01 and 100 μM. Two days later all plates were fixed as described above. Cells were then stained by the addition of 100 μl per well of 0.4% sulforhodamine B (SRB) in 1% acetic acid for 30 min at 4° C. Wells were then quickly rinsed 5×with acetic acid (1%) and allowed to air dry. The SRB was then solubilized by the addition of 100 μl per well of unbuffered 10 mM Tris base. Dye was quantified by measuring absorbance at 490 nm on a Molecular Devices kinetic microplate reader. Growth at each inhibitor concentration relative to the untreated control was calculated according to the following equation: percent growth=100×(T−To)/(C−To), where T was the average optical density (OD) of the test wells after 2 days of treatment, To was the average OD of the wells in the control plate on day 0 and C was the average OD of untreated wells. Plots of percent growth versus inhibitor concentration were used to determine the GI50.
# CyclinE/cdk2 = CyclinE/cdk2 (Homo sapiens, UniProt P24941); experiment: CyclinE/cdk2 protein kinase assay (histone H1 phosphorylation); details: IC50 CyclinE/cdk2, complex immunopurified from HeLa cells; 15 μM ATP; replicate experiments
# CyclinA/cdk2 = CyclinA/cdk2 (Homo sapiens, UniProt P24941); experiment: CyclinA/cdk2 protein kinase assay (histone H1 phosphorylation); details: IC50 CyclinA/cdk2, complex immunopurified from HeLa cells; 15 μM ATP; replicate experiments
# [1] = test system: Tumor Cells in Hollow Fibers; experiment: NCI Hollow Fiber Assay (in vivo evaluation); details: for IP Score: IP fibers; for SC score: SC fibers
Compound,GI50 (HeLa S-3 cells),"GI50 (HeLa S-3 cells; Homo sapiens, HeLa S3, 48 h)",other results
CC(=O)N[C@H]1CC[C@H](Nc2nc(NCc3ccc(-c4ccco4)nc3)c3ncn(C(C)C)c3n2)CC1 [Compound 206],200 nM,,
CC[C@H](CO)Nc1nc(NCc2ccc(-c3cccc(N)c3)cc2)c2ncn(C(C)C)c2n1 [Compound 36],,20000 nM,
CC(=O)N[C@H]1CC[C@H](Nc2nc(NCc3ccc(-c4ccoc4)cc3)c3ncn(C(C)C)c3n2)CC1 [Compound 165],200 nM and 100 nM,,
CCCN(CCC)[C@H]1CC[C@H](Nc2nc(NCc3ccc(-c4cc(C)cc(C)c4)cc3)c3ncn(C(C)C)c3n2)CC1 [Compound 152],700 nM and 300 nM,,
CC(C)n1cnc2c(NCc3ccc(-c4cccc(F)c4)nc3)nc(N[C@H]3CC[C@H](NC(=O)[C@H](C)NC(=O)OC(C)(C)C)CC3)nc21 [Compound 230],,300 nM,
CC(C)n1cnc2c(NCc3ccc(-c4cccc(F)c4)nc3)nc(N[C@H]3CC[C@H](NC(=O)CNC(=O)OC(C)(C)C)CC3)nc21 [Compound 232],,300 nM,
COc1cccc(-c2ccc(CNc3nc(N[C@H]4CC[C@H](NC(C)=O)CC4)nc4c3ncn4C(C)C)cc2)c1 [Compound 180],300 nM,,
CC(=O)N[C@H]1CC[C@H](Nc2nc(NCc3ccc(-c4ccc(C)cc4)cc3)c3ncn(C(C)C)c3n2)CC1 [Compound 97],,3000 nM,IC50 (CyclinE/cdk2): 3000 nM; IC50 (CyclinA/cdk2): > 10000 nM
CC(C)n1cnc2c(NCc3ccc(-c4cccc(F)c4)nc3)nc(N[C@H]3CC[C@H](NC(=O)CN)CC3)nc21 [Compound 233],,500 nM,
Cc1csc(-c2ccc(CNc3nc(N[C@H]4CC[C@H](N)CC4)nc4c3ncn4C(C)C)cc2)c1 [Compound 160],,200 nM,
CC[C@H](CO)Nc1nc(NCc2ccc(-c3ccc(C(O)CO)cc3)cc2)c2ncn(C(C)C)c2n1 (some centres unmarked) [Compound 34],,7000 nM,
CC(C)n1cnc2c(NCc3cccc(-c4ccccc4)c3)nc(N[C@H]3CC[C@H](NC(=O)OC(C)(C)C)CC3)nc21 [Compound 133],> 10000 nM,,
CC(=O)N[C@H]1CC[C@H](Nc2nc(NCc3ccc(-c4ccc(F)cc4)cc3)c3ncn(C(C)C)c3n2)CC1 [Compound 102],,,IC50 (CyclinE/cdk2): 4000 nM; IC50 (CyclinA/cdk2): > 10000 nM
CC(=O)N[C@@H](C)CNc1nc(NCc2ccc(-c3ccccc3)cc2)c2ncn(C(C)C)c2n1 [Compound 108],,3000 nM,IC50 (CyclinE/cdk2): > 10000 nM; IC50 (CyclinA/cdk2): > 10000 nM
CCCN[C@H]1CC[C@H](Nc2nc(NCc3ccc(-c4cc(C)cs4)cc3)c3ncn(C(C)C)c3n2)CC1 [Compound 162],,200 nM,
CCCNCCNc1nc(NCc2ccc(-c3ccccc3)cc2)c2ncn(C(C)C)c2n1 [Compound 209],,2000 nM,
"CN1CC[C@H](c2c(O)cc(O)c3c(=O)cc(-c4ccccc4Cl)oc23)[C@H](O)C1 [Flavopiridol, reference compound]",,180 nM,
CC(=O)N[C@H]1CC[C@H](Nc2nc(NCc3ccc(-c4cccs4)cc3)c3ncn(C(C)C)c3n2)CC1 [Compound 112],,,IC50 (CyclinE/cdk2): 2000 nM; Cell Types Killed [1]: OVCAR-3; IP Score [1]: 18; SC score [1]: 2; IC50 (CyclinA/cdk2): 2000 nM
CCCN(CCC)CCNc1nc(NCc2ccc(-c3ccccc3)cc2)c2ncn(C(C)C)c2n1 [Compound 210],,3000 nM,
CC(Nc1nc(N[C@H]2CC[C@H](N)CC2)nc2c1ncn2C(C)C)c1ccc(-c2ccsc2)cc1 (some centres unmarked) [Compound 257],,3000 nM,
COC(=O)N[C@H]1CC[C@H](Nc2nc(NCc3ccc(-c4ccccc4)cc3)c3ncn(C(C)C)c3n2)CC1 [Compound 259],300 nM and 700 nM,,
CC(C)n1cnc2c(NCc3ccc(-c4ccoc4)cc3)nc(N[C@H]3CC[C@H](N)CC3)nc21 [Compound 164],,200 nM,
CC(=O)N[C@H]1CC[C@H](Nc2nc(NCc3ccc(-c4ccc(C)s4)cc3)c3ncn(C(C)C)c3n2)CC1 [Compound 158],600 nM,,
CCCNCCCCNc1nc(NCc2ccc(-c3ccccc3)cc2)c2ncn(C(C)C)c2n1 [Compound 215],,2000 nM,
CC(C)n1cnc2c(NCCc3ccc(-c4ccccc4)cc3)nc(N[C@H]3CC[C@H](N)CC3)nc21 [Compound 239],,6000 nM,
CCCN[C@H]1CC[C@H](Nc2nc(NCc3ccc(-c4cc(OC)ccc4OC)cc3)c3ncn(C(C)C)c3n2)CC1 [Compound 155],800 nM,500 nM,

Compound,GI50 (HeLa S-3 cells),"GI50 (HeLa S-3 cells; Homo sapiens, HeLa S3, 48 h)",other results
CC(C)n1cnc2c(NCCc3ccc(-c4ccsc4)cc3)nc(N[C@H]3CC[C@H](NC(=O)OC(C)(C)C)CC3)nc21 [Compound 242],> 10000 nM,,
CC(C)n1cnc2c(NCc3ccc(-c4cccs4)nc3)nc(N[C@H]3CC[C@H](N)CC3)nc21 [Compound 199],200 nM and 90 nM,,
CCCN[C@H]1CC[C@H](Nc2nc(NCCOc3ccc(-c4ccccc4)cc3)c3ncn(C(C)C)c3n2)CC1 [Compound 250],6000 nM,,
CC(C)n1cnc2c(NCc3ccc(-c4cccc(F)c4)nc3)nc(N[C@H]3CC[C@H](N)CC3)nc21 [Compound 187],30 nM,50 nM,
CC(C)n1cnc2c(NCc3ccc(-c4ccc(Cl)s4)cc3)nc(N[C@H]3CC[C@H](N)CC3)nc21 [Compound 264],500 nM,300 nM,
CC(=O)N[C@H]1CC[C@H](Nc2nc(NCc3ccc(-c4ccco4)cc3)c3ncn(C(C)C)c3n2)CC1 [Compound 182],,300 nM,
CC(=O)N[C@H]1CC[C@H](Nc2nc(NCc3ccc(-c4ccc(Cl)s4)cc3)c3ncn(C(C)C)c3n2)CC1 [Compound 265],,300 nM,
CC(C)n1cnc2c(NCc3ccc(-c4ccccc4)cc3)nc(N[C@H]3CC[C@H](N4C(=O)CCC4=O)CC3)nc21 [Compound 262],300 nM and 200 nM and 500 nM,,
CC(=O)N[C@H]1CC[C@H](Nc2nc(NCc3ccc(-c4cc(C)cs4)cc3)c3ncn(C(C)C)c3n2)CC1 [Compound 161],200 nM,,
CC(C)n1cnc2c(NCc3ccc(-c4cccc(F)c4)nc3)nc(N[C@H]3CC[C@H](NC(=O)[C@H](C)N)CC3)nc21 [Compound 231],,40 nM,
CC(=O)N[C@H]1CC[C@H](Nc2nc(NCCc3ccc(-c4ccccc4)cc3)c3ncn(C(C)C)c3n2)CC1 [Compound 240],8000 nM,,
CC(=O)N[C@H]1CC[C@H](Nc2nc(NCCOc3ccc(-c4ccccc4)cc3)c3ncn(C(C)C)c3n2)CC1 [Compound 249],,> 10000 nM,
CC(C)n1cnc2c(NCc3ccc(-c4cccc(Cl)c4)cc3)nc(N[C@H]3CC[C@H](N)CC3)nc21 [Compound 109],,,IC50 (CyclinE/cdk2): 100 nM; IC50 (CyclinA/cdk2): 600 nM
CC(=O)NCCCCNc1nc(NCc2ccc(-c3ccccc3)cc2)c2ncn(C(C)C)c2n1 [Compound 214],,5000 nM,
CCN(C(C)=O)[C@H]1CC[C@H](Nc2nc(NCc3ccc(-c4ccccc4)cc3)c3ncn(C(C)C)c3n2)CC1 [Compound 267],800 nM and 600 nM,,
CC(C)n1cnc2c(NCc3ccc(-c4ccco4)cc3)nc(N[C@H]3CC[C@H](N)CC3)nc21 [Compound 181],,40 nM,
CC(C)n1cnc2c(NCc3cccc(-c4ccsc4)c3)nc(N[C@H]3CC[C@H](NC(=O)OC(C)(C)C)CC3)nc21 [Compound 130],> 10000 nM,,
CC(=O)N[C@H]1CC[C@H](Nc2nc(NCc3ccc(-c4ccsc4)nc3)c3ncn(C(C)C)c3n2)CC1 [Compound 124],,,IC50 (CyclinE/cdk2): 800 nM; Cell Types Killed [1]: OVCAR-3; IP Score [1]: 28; SC score [1]: 0; IC50 (CyclinA/cdk2): 2000 nM
Cc1ccc(-c2ccc(CNc3nc(N[C@H]4CC[C@H](N)CC4)nc4c3ncn4C(C)C)cc2)s1 [Compound 157],,500 nM,
CC(C)n1cnc2c(NCc3ccc(-c4ccccc4)cc3)nc(NC[C@H](C)N)nc21 [Compound 107],,,IC50 (CyclinE/cdk2): 2000 nM; IC50 (CyclinA/cdk2): 1000 nM and 4000 nM
CC(=O)N[C@H]1CC[C@H](Nc2nc(NCc3ccc(-c4cccc(F)c4)nc3)c3ncn(C(C)C)c3n2)CC1 [Compound 188],200 nM and 70 nM,,
CC(=O)N[C@H]1CC[C@H](Nc2nc(NCc3ccc(-c4cccc(C)c4)cc3)c3ncn(C(C)C)c3n2)CC1 [Compound 178],200 nM,,
CC(=O)N[C@H]1CC[C@H](Nc2nc(NCc3ccc(-c4cccc(Cl)c4)cc3)c3ncn(C(C)C)c3n2)CC1 [Compound 110],20 nM,,IC50 (CyclinE/cdk2): 2000 nM; Cell Types Killed [1]: OVCAR-3; IP Score [1]: 14; SC score [1]: 0; IC50 (CyclinA/cdk2): 600 nM
CC(C)n1cnc2c(NCc3ccc(-c4ccccc4)cc3)nc(N[C@H]3CC[C@H](NC(=O)C4CC4)CC3)nc21 [Compound 261],300 nM,,
CC(C)n1cnc2c(NCc3ccc(I)cc3)nc(N[C@H]3CC[C@H](N)CC3)nc21 [Compound 11],,,IC50 (CyclinE/cdk2): 70 nM; IC50 (CyclinA/cdk2): 200 nM
CCCN[C@H]1CC[C@H](Nc2nc(NCc3ccc(-c4cc(C)cc(C)c4)cc3)c3ncn(C(C)C)c3n2)CC1 [Compound 151],600 nM,800 nM,
